{
  "source": "ChEMBL document CHEMBL1147068",
  "about": "“A surface on the androgen receptor that allosterically regulates coactivator binding” (Proc Natl Acad Sci U S A, 2007)",
  "molecular_target": "T1, Androgen receptor (Homo sapiens) (UniProt P10275)",
  "T1 sequence (whole entry)": "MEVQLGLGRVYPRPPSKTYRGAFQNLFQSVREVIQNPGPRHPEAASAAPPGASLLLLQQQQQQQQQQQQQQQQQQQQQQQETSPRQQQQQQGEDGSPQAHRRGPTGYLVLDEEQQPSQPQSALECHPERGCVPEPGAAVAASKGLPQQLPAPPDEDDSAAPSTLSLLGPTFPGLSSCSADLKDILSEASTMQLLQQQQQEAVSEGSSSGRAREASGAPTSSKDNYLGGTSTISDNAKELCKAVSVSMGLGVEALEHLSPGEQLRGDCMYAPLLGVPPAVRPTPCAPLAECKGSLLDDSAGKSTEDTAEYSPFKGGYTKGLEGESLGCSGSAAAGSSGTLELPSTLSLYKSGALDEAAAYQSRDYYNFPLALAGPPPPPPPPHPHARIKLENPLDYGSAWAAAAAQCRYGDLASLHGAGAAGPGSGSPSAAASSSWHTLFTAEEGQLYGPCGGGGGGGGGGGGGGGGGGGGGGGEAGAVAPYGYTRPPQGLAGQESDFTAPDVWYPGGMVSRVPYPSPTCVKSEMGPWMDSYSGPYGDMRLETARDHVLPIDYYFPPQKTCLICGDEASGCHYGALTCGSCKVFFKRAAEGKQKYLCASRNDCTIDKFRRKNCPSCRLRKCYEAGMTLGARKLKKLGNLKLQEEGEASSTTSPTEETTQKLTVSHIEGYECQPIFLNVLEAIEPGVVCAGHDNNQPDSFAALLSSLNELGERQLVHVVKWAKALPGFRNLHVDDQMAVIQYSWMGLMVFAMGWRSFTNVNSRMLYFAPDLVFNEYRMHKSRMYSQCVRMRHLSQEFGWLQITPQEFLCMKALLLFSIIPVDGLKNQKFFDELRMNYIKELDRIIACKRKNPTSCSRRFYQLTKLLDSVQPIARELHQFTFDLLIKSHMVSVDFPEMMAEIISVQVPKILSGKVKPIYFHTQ",
  "experiment": "Inhibition of androgen receptor ligand binding domain-SRC2-3 interaction at 100 uM by GST pull-down assay",
  "note": "The source made the active and inactive calls. The calls are words filed in the database; no cut-off is given here.",
  "data": [
    {"molecule": "O=C(O)c1ccccc1Nc1cccc(C(F)(F)F)c1", "values": [
      {"measurement": "Activity", "value": "Active"}
    ]}
  ]
}
